Measured values reported in patent US7169591B1, “Preparation of enantio-specific epoxides” (priority 1999, dated 2007).
Where “and” joins values, the source holds several entries; their conditions need not be identical. Equal entries are not always repeated.

What was measured:
[1] = test system: Burkholderia sp. strain ENVBF1; test: Enantiomeric ratio of monoepoxides (chiral GC), strain ENVBF1; type: cell-based
Procedure: (§1) To determine the ratio of R and S isomers of the epoxides formed from the oxidation of the alkenes, samples were analyzed for the presence of the epoxides and alkenes by gas chromatography as described above. When the epoxide concentration neared its maximum, or when the 80–90% of the substrate was degraded, the enantiomeric ratio of epoxides produced was determined by injecting a sample of the headspace gas onto a GC equipped with a chiral separation column (RT-BDEXSE; Restek, Inc., Bellefonte, Pa.) and a flame ionization detector. The column was maintained at 50° C.

[2] = test system: Burkholderia cepacia G4 (T2MO); test: Enantiomeric ratio of monoepoxides (chiral GC), strain G4; type: cell-based
Procedure: as §1

[3] = test system: Pseudomonas sp. strain ENVPC5; test: Enantiomeric ratio of monoepoxides (chiral GC), strain ENVPC5; type: cell-based; details: PC5
Procedure: as §1

[4] = test system: Pseudomonas mendocina KR1 (T4MO); test: Enantiomeric ratio of monoepoxides (chiral GC), strain KR1; type: cell-based
Procedure: as §1

[5] = test system: Pseudomonas pickettii PKO1 (T3MO); test: Enantiomeric ratio of monoepoxides (chiral GC), strain PKO1; type: cell-based; details: KO1 (PKO1)
Procedure: as §1

alkene monooxygenase = target: T1, alkene monooxygenase (Xanthobacter versatilis, UniProt O87082); details: cited from earlier work
T1 sequence (O87082 1-497): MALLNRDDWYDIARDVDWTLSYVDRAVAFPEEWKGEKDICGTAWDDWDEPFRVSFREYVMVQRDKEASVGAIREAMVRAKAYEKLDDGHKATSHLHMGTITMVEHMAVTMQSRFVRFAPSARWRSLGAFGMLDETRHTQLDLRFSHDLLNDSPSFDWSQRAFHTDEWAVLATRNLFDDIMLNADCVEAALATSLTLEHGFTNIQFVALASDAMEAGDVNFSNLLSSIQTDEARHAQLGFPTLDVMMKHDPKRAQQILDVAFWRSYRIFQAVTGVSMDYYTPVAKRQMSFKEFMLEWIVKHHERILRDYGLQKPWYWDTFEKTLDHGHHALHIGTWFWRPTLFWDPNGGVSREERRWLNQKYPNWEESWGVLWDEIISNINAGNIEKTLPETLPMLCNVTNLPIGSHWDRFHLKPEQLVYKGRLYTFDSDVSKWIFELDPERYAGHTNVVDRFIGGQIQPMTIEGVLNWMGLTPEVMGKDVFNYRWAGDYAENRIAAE

Burkholderia cepacia G4 = test: Alkene degradation assay, whole cells of Burkholderia cepacia G4 (T2MO); type: cell-based; details: G4; following 30 minutes incubation
Description: (§2) Pseudomonas mendocina KR1 (Yen et al., J. Bacteriol., 173:5315–5327 (1991)), the T4MO mutant of KR1 Pseudomonas mendocina ENVpmx1 (McClay et al., The 97th Annual Meeting of ASM, Abstract K36, page 348 (1997)), Pseudomonas pickettii PKO1 (Byrne et al., Gene, 154:65–70 (1995)), Burkholderia cepacia G4 (Shields et al., Appl. Environ. Microbiol., 55:1624–1629 (1989)), Burkholderia sp. strain ENVBF1 (McClay et al., Appl. Environ. Microbiol., 62:2716–2722 (1996)), and Pseudomonas sp. strain ENVPC5 (McClay et al., 1996, supra) were cultured overnight at 30° C. in shake flasks containing basal salts medium (BSM; 10) supplemented with 0.4% sodium glutamate. Toluene was included in the vapor phase when induction of the toluene oxygenases was desired. Prior to substrate degradation assays the cultures were harvested by centrifugation and resuspended in BSM to an optical density at 550 nm (OD550) of 2, unless otherwise indicated. A standard curve of optical density vs. protein concentration for each strain was used to calculate the amount of protein per ml of the resuspended cultures.
(§3) To determine the range of alkenes that could be degraded by the toluene monooxygenase and the degradation kinetics of the toluene monooxygenases, 5-ml aliquots of the resuspended cultures were dispensed to 25-ml serum vials and crimp sealed with Teflon™ faced septa. Gaseous alkene substrates were added as pure compounds by using a gas-tight syringe, and other alkene substrates were added from stock solutions (20% in dimethylformamide). The amount of individual alkene substrates added were as follows: 1-butene, 2-butene, and 1,3-butadiene, 2.2 μM; epoxy butane, 1,3-butadiene monoxide, and epichlorohydrine, 8 μM; 1- and 2-pentene, 9 μM; hexene, 4 μM; octadiene, 4.5 μM; 2-chloropropene, 11 μM; and, 2,3-dichloropropene, 12 μM unless otherwise indicated. The serum vials were then placed horizontally on a rotary shaker operating at 100 rpm. During incubation the temperature was maintained between 20–22° C. for the Pseudomonads and at 37° C. for E. coli. The serum vials were periodically removed from the shaker and a 10–25 μl portion of the headspace gas was withdrawn through the septa and injected onto a gas chromatograph (GC) equipped with a 30 m Vocol column (Supelco Inc. Bellefonte, Pa.) maintained at 160° C., and a flame ionization detector. This allowed the monitoring of both the alkene compounds as well as the epoxide products. The same protocol was used to detect the formation of 1,2-butanediol and butadiene diepoxide, except that 1 μl of the culture media was injected onto the column rather than the headspace gas.

[6] = test system: Pseudomonas mendocina KR1; test: Alkene degradation assay, whole cells of Pseudomonas mendocina KR1 (T4MO); type: cell-based
Description: as §2, §3

[7] = test system: Pseudomonas sp. strain ENVPC5; test: Alkene degradation assay, whole cells of Pseudomonas sp. strain ENVPC5 (T4MO); type: cell-based; details: following 30 minutes incubation
Description: as §2, §3

[8] = test system: Burkholderia sp. strain ENVBF1; test: Alkene degradation assay, whole cells of Burkholderia sp. strain ENVBF1 (T4MO); type: cell-based; details: ENVBF1; following 30 minutes incubation
Description: as §2, §3

[9] = test system: Pseudomonas mendocina ENVpmx1; test: Alkene degradation assay, T4MO deficient strain Pseudomonas mendocina ENVpmx1; type: cell-based
Description: as §2, §3

[10] = test system: E. coli (pRS202) expressing T4MO; test: Alkene degradation assay, E. coli (pRS202) expressing T4MO; type: cell-based, Escherichia coli DH10B
Procedure: Escherichia coli DH10B containing the plasmid pRS202 (Pikus et al., Biochemistry, 35:9106–9119 (1996); Pikus et al., Biochemistry, 36:9283–9289 (1997)) was prepared in a similar manner except it was grown at 37° C. in LB media, and was resuspended to an OD550 of 4 in LB media with 0.3–1 mM IPTG to induce expression of T4MO.
as §3

wild type organisms = test: Alkene oxidation and epoxide detection (GC, PNBP), wild type organisms; type: cell-based; details: all the wild type strains
Procedure: as §3
The only epoxides relevant to this study that were commercially available were 1,3-butadiene mono-, and diepoxide. These were used in GC analyses to determine retention times and to quantitate the conversion of 1,3-butadiene to the corresponding epoxides. To verify that the observed peaks were epoxides, a modification of the method of van Hylckama et al. (van Hylckama et al., Appl. Environ. Microbiol., 62:3304–3312 (1996)) was used, whereby epoxides were conjugated with PNBP to form intensely colored adducts of the epoxides. Serum vials were prepared as before, except that prior to sealing the vials, Durham tubes were placed inside the vials, with the opening of the Durham tube extending out of the liquid. The substrate was then added and the vials were incubated with moderate shaking at a 45° angle to prevent the culture liquid from entering the Durham tube. The transformation of the alkenes was monitored by GC analysis. […] The vials were then allowed to incubate for 8 hours before they were opened and the epoxide containing PNBP withdrawn. The total volume of PNBP solution was combined with an equal volume of acetone-triethylamine (50:50) and mixed rapidly. Epoxide/PNBP adducts were detected by spectra analysis (400–700 nm).

T4MO = test: Induction of T4MO by alkenes and toluene (FIG. 14); type: cell-based; details: at 120 minutes
Procedure: The data points are the average of duplicate samples, with the range shown as error bars. The relative light units registered by the 2-pentene sample at 120 minutes was approximately 10^5.

[11] = target: soluble methane monooxygenase (MMO) (Methylosinus trichosporium, UniProt P27353); details: cited from earlier work
Chain of soluble methane monooxygenase (MMO) (P27353 whole entry): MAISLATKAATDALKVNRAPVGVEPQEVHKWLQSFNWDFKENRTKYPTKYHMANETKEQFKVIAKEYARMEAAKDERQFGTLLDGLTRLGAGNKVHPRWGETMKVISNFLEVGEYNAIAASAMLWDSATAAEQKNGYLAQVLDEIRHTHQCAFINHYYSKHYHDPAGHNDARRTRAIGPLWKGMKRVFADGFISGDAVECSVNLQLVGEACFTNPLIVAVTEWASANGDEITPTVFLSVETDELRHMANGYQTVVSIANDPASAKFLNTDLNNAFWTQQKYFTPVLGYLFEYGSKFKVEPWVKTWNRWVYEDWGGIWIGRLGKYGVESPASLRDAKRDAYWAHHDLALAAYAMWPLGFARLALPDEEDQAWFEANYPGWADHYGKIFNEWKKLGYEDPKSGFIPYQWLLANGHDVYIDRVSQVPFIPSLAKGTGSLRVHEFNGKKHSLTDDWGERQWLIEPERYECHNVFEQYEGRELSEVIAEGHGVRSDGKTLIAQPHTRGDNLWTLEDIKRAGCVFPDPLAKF
Chain of soluble methane monooxygenase (MMO) (P27354 whole entry partner): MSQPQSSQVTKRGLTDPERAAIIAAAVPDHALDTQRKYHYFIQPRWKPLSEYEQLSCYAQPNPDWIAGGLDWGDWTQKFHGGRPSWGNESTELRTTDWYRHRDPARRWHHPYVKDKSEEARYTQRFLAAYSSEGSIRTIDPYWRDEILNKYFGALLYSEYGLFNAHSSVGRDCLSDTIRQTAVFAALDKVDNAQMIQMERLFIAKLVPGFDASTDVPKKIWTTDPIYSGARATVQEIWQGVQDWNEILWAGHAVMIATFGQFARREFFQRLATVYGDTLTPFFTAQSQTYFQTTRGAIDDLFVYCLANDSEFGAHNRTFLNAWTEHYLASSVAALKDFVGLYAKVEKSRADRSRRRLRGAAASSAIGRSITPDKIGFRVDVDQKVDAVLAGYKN
Chain of soluble methane monooxygenase (MMO) (P27355 whole entry partner): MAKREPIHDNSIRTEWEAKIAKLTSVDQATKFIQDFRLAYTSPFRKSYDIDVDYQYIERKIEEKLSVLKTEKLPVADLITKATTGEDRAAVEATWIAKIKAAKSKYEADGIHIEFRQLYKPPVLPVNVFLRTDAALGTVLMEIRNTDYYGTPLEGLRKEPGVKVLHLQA
Chain of soluble methane monooxygenase (MMO) (P27356 whole entry partner): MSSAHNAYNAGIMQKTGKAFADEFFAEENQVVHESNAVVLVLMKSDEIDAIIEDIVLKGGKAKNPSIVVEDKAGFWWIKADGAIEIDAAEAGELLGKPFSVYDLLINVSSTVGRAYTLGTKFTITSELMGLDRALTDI

styrene monooxygenase = target: T2, styrene monooxygenase (Pseudomonas sp, UniProt O50214); details: cited from earlier work
T2 sequence (O50214 1-415): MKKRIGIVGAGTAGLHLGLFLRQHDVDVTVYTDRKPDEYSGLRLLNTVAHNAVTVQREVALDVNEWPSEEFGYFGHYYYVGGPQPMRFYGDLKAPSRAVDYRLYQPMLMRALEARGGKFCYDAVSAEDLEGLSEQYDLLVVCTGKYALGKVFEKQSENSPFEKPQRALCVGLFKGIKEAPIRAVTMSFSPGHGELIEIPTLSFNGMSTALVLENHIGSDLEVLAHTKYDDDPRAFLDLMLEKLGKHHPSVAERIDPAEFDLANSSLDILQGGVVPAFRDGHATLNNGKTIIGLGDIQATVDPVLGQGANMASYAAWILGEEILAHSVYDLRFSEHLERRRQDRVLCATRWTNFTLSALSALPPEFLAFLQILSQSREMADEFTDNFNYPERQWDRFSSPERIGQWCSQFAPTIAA

SMILES: C=CCC [1-butene]
- monoepoxide formed, R enantiomer [1]: 9.8%
- monoepoxide formed, S enantiomer [1]: 90.2%
- monoepoxide formed, R enantiomer [2]: 6.5%
- monoepoxide formed, S enantiomer [2]: 93.5%
- monoepoxide formed, R enantiomer [3]: 11% and 11.3%
- monoepoxide formed, S enantiomer [3]: 89% and 88.7%
- monoepoxide formed, R enantiomer [4]: 0%
- monoepoxide formed, R enantiomer [5]: 8.3%
- monoepoxide formed, S enantiomer [5]: 92.7%
- R isomer formed (alkene monooxygenase): 94%

SMILES: CC=CCC [2-pentene]
- Specific activity of toluene monooxygenase, substrate degraded (Burkholderia cepacia G4): 0.16 μM substrate degraded/minute/mg protein
- initial oxidation rate [6]: 0.33 mM/min/mg protein
- Specific activity of toluene monooxygenase, substrate degraded ([6]; following 30 minutes incubation): 0.33 μM substrate degraded/minute/mg protein
- Specific activity of toluene monooxygenase, substrate degraded [7]: 0.18 μM substrate degraded/minute/mg protein
- Specific activity of toluene monooxygenase, substrate degraded [8]: 0.14 μM substrate degraded/minute/mg protein
- degradation compared with the wild type strains [9]: more rapidly and to a greater extent than the wild type strains
- degradation by the clone of T4MO [10]: degraded
- degradation (wild type organisms): efficiently degraded
- induction of T4MO, relative light units (T4MO): approximately 10^5 relative light units

SMILES: C=CCCl [3-chloropropene]
- (S) epoxide formed (alkene monooxygenase): 80%

SMILES: C=CC(C)C [3-methyl-butene]
- oxidation by MMO [11]: unable to oxidize

SMILES: C1=CCCCC1 [cyclohexene]
- oxidation by MMO [11]: unable to oxidize

SMILES: C=Cc1ccccc1 [styrene]
- enantiomer excess of (S)-styrene oxide formed (styrene monooxygenase): > 99%
